Reference: patent publication US11274083B2, “Substituted thiophenyl uracils, salts thereof and the use thereof as herbicidal agents” (Syngenta Crop Protection AG, priority 2017, dated 2022)
Several values for one entry are separate records, joined by “and”; a condition that tells them apart may be missing. Equal values may be shown once.

Columns and labels:
Format in all cases: in vivo
Abutilon theophrasti [1] = experiment: Herbicidal action post-emergence, greenhouse pot test
In short: (§1)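 Sandy loam pots, greenhouse; one-leaf stage (2–3 wk post-sowing); WP/EC spray as aqueous suspension/emulsion + 0.5% additive, 600 L/ha; rate ≤80 g/ha; visual % efficacy vs untreated at ~3 wk.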

Alopecurus myosuroides [2] = experiment: as above; settings: scored visually after about 3 weeks vs untreated controls
In short: as §1

Amaranthus retroflexus [3] = experiment: as above
In short: as §1

Avena fatua [4] = experiment: as above; settings: application rate 80 g/ha
In short: as §1

Echinochloa crus-galli [5] = experiment: as above
In short: as §1

Lolium multiflorum [6] = experiment: as above; settings: application rate 80 g/ha
In short: as §1

Matricaria inodora [7] = experiment: as above
In short: as §1

Pharbitis purpurea [8] = experiment: as above
In short: as §1

Polygonum convolvulus [9] = experiment: as above
In short: as §1

Setaria viridis [10] = experiment: as above
In short: as §1

Stellaria media [11] = experiment: as above
In short: as §1

Veronica persica [12] = experiment: as above
In short: as §1

Viola tricolor [13] = experiment: as above
In short: as §1

Oryza sativa = experiment: Crop compatibility post-emergence, greenhouse pot test
In short: (§2)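 Crops grown in sandy loam in greenhouse pots; treated post-emergence at one-leaf stage, 2–3 weeks after sowing, spraying WP or EC formulations as aqueous suspension/emulsion with 0.5% additive at 600 L/ha. Damage scored visually after about 3 weeks against untreated controls (0% = like control, 100% = dead).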

Triticum aestivum = experiment: as above
In short: as §2

Abutilon theophrasti [14] = experiment: Herbicidal action pre-emergence, greenhouse pot test
In short: (§3)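 Pre-emergence soil-surface spray, WP/EC formulations in water plus 0.5% additive, 600 L/ha spray volume; rate 320 g/ha or lower. Greenhouse ~3 wk. Visual % efficacy vs untreated (100% = plants dead, 0% = like control).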

Alopecurus myosuroides [15] = experiment: as above
In short: as §3

Amaranthus retroflexus [16] = experiment: as above
In short: as §3

Cyperus esculentus = experiment: as above; settings: application rate 320 g/ha
In short: as §3

Echinochloa crus-galli [17] = experiment: as above
In short: as §3

Lolium multiflorum [18] = experiment: as above; settings: application rate 80 g/ha, scored visually after about 3 weeks vs untreated controls
In short: as §3

Pharbitis purpurea [19] = experiment: as above
In short: as §3

Polygonum convolvulus [20] = experiment: as above
In short: as §3

Setaria viridis [21] = experiment: as above
In short: as §3

Stellaria media [22] = experiment: as above
In short: as §3

Veronica persica [23] = experiment: as above
In short: as §3

Viola tricolor [24] = experiment: as above
In short: as §3

Matricaria inodora [25] = experiment: as above
Lolium rigidum [26] = experiment: Herbicidal action post-emergence, greenhouse pot test; settings: application rate 80 g/ha
In short: as §1

Zea mays = experiment: Crop compatibility post-emergence, greenhouse pot test
In short: as §2

Hordeum murinum [27] = experiment: Herbicidal action pre-emergence, greenhouse pot test; settings: application rate 320 g/ha
In short: as §3

Lolium rigidum [28] = experiment: as above; settings: application rate 320 g/ha
In short: as §3

Digitaria sanguinalis [29] = experiment: Herbicidal action post-emergence, greenhouse pot test
Digitaria sanguinalis [30] = experiment: Herbicidal action pre-emergence, greenhouse pot test
Excerpt: Seeds of mono- and dicotyledonous weeds and crop plants were laid out in plastic or organic plant pots and covered with soil. The compounds of the invention formulated in the form of wettable powders (WP) or as emulsion concentrates (EC) were then applied to the surface of the covering soil as an aqueous suspension or emulsion with addition of 0.5% additive at a water application rate equivalent to 600 L/ha. After the treatment, the pots were placed in a greenhouse and kept under good growth conditions for the test plants. After about 3 weeks, the efficacy of the preparations was scored visually as a percentage by comparison with untreated controls. For example, 100% efficacy=plants have died. 0% efficacy=like control plants.

Hordeum murinum [31] = experiment: Herbicidal action post-emergence, greenhouse pot test; settings: application rate 80 g/ha
In short: as §1

Glycine max = experiment: Crop compatibility post-emergence, greenhouse pot test; settings: application rate 20 g/ha
In short: as §2

Avena fatua [32] = experiment: Herbicidal action pre-emergence, greenhouse pot test; settings: application rate 320 g/ha
In short: as §3

CCOC(=O)CCOC(=O)C(C)Sc1cc(-n2c(=O)cc(C(F)(F)F)n(C)c2=O)c(F)cc1Cl (stereo not drawn) [I.1-3]
10%: Triticum aestivum (Efficacy in %) (Triticum aestivum; application rate 20 g/ha)
100%: Abutilon theophrasti (Efficacy in %) (Abutilon theophrasti [1]; application rate 80 g/ha) | Alopecurus myosuroides (Efficacy in %) (Alopecurus myosuroides [2]; application rate 80 g/ha) | Amaranthus retroflexus (Efficacy in %) (Amaranthus retroflexus [3]; application rate 80 g/ha) | Echinochloa crus-galli (Efficacy in %) (Echinochloa crus-galli [5]; application rate 80 g/ha) | Lolium multiflorum (Efficacy in %) (Lolium multiflorum [6]) | Matricaria inodora (Efficacy in %) (Matricaria inodora [7]; application rate 80 g/ha) | Pharbitis purpurea (Efficacy in %) (Pharbitis purpurea [8]; application rate 80 g/ha) | Polygonum convolvulus (Efficacy in %) (Polygonum convolvulus [9]; application rate 80 g/ha) | Setaria viridis (Efficacy in %) (Setaria viridis [10]; application rate 80 g/ha) | Stellaria media (Efficacy in %) (Stellaria media [11]; application rate 80 g/ha) | Veronica persica (Efficacy in %) (Veronica persica [12]; application rate 80 g/ha) | Viola tricolor (Efficacy in %) (Viola tricolor [13]; application rate 80 g/ha) | Abutilon theophrasti (Efficacy in %) (Abutilon theophrasti [14]; application rate 320 g/ha) | Amaranthus retroflexus (Efficacy in %) (Amaranthus retroflexus [16]; application rate 80 g/ha) | Cyperus esculentus (Efficacy in %) (Cyperus esculentus) | Echinochloa crus-galli (Efficacy in %) (Echinochloa crus-galli [17]; application rate 320 g/ha) | Lolium multiflorum (Efficacy in %) (Lolium multiflorum [18]) | Pharbitis purpurea (Efficacy in %) (Pharbitis purpurea [19]; application rate 320 g/ha) | Polygonum convolvulus (Efficacy in %) (Polygonum convolvulus [20]; application rate 320 g/ha) | Setaria viridis (Efficacy in %) (Setaria viridis [21]; application rate 320 g/ha) | Stellaria media (Efficacy in %) (Stellaria media [22]; application rate 320 g/ha) | Veronica persica (Efficacy in %) (Veronica persica [23]; application rate 320 g/ha) | Viola tricolor (Efficacy in %) (Viola tricolor [24]; application rate 320 g/ha) | Matricaria inodora (Efficacy in %) (Matricaria inodora [25]; application rate 320 g/ha)
90%: Alopecurus myosuroides (Efficacy in %) (Alopecurus myosuroides [15]; application rate 80 g/ha)
20%: Oryza sativa (Efficacy in %) (Oryza sativa; application rate 20 g/ha)
80%: Avena fatua (Efficacy in %) (Avena fatua [4])

COC(=O)C(C)(C)COC(=O)C(C)Sc1cc(-n2c(=O)cc(C(F)(F)F)n(C)c2=O)c(F)cc1Cl (stereo not drawn) [I.1-32]
90%: Alopecurus myosuroides (Efficacy in %) (Alopecurus myosuroides [15]; application rate 320 g/ha) | Hordeum murinum (Efficacy in %) (Hordeum murinum [27]) | Lolium rigidum (Efficacy in %) (Lolium rigidum [28])
20%: Oryza sativa (Efficacy in %) (Oryza sativa; application rate 20 g/ha) | Triticum aestivum (Efficacy in %) (Triticum aestivum; application rate 5 g/ha) | Zea mays (Efficacy in %) (Zea mays; application rate 20 g/ha)
80%: Alopecurus myosuroides (Efficacy in %) (Alopecurus myosuroides [2]; application rate 80 g/ha) | Avena fatua (Efficacy in %) (Avena fatua [4])
100%: Abutilon theophrasti (Efficacy in %) (Abutilon theophrasti [1]; application rate 80 g/ha) | Amaranthus retroflexus (Efficacy in %) (Amaranthus retroflexus [3]; application rate 80 g/ha) | Echinochloa crus-galli (Efficacy in %) (Echinochloa crus-galli [5]; application rate 80 g/ha) | Lolium rigidum (Efficacy in %) (Lolium rigidum [26]) | Matricaria inodora (Efficacy in %) (Matricaria inodora [7]; application rate 80 g/ha) | Pharbitis purpurea (Efficacy in %) (Pharbitis purpurea [8]; application rate 80 g/ha) | Polygonum convolvulus (Efficacy in %) (Polygonum convolvulus [9]; application rate 80 g/ha) | Setaria viridis (Efficacy in %) (Setaria viridis [10]; application rate 80 g/ha) | Stellaria media (Efficacy in %) (Stellaria media [11]; application rate 80 g/ha) | Veronica persica (Efficacy in %) (Veronica persica [12]; application rate 80 g/ha) | Viola tricolor (Efficacy in %) (Viola tricolor [13]; application rate 80 g/ha) | Abutilon theophrasti (Efficacy in %) (Abutilon theophrasti [14]; application rate 320 g/ha) | Amaranthus retroflexus (Efficacy in %) (Amaranthus retroflexus [16]; application rate 320 g/ha) | Echinochloa crus-galli (Efficacy in %) (Echinochloa crus-galli [17]; application rate 320 g/ha) | Pharbitis purpurea (Efficacy in %) (Pharbitis purpurea [19]; application rate 320 g/ha) | Polygonum convolvulus (Efficacy in %) (Polygonum convolvulus [20]; application rate 320 g/ha) | Setaria viridis (Efficacy in %) (Setaria viridis [21]; application rate 320 g/ha) | Stellaria media (Efficacy in %) (Stellaria media [22]; application rate 320 g/ha) | Veronica persica (Efficacy in %) (Veronica persica [23]; application rate 320 g/ha) | Viola tricolor (Efficacy in %) (Viola tricolor [24]; application rate 320 g/ha) | Matricaria inodora (Efficacy in %) (Matricaria inodora [25]; application rate 320 g/ha) | Digitaria sanguinalis (Efficacy in %) (Digitaria sanguinalis [29]; application rate 80 g/ha) | Digitaria sanguinalis (Efficacy in %) (Digitaria sanguinalis [30]; application rate 320 g/ha)

CC(Sc1cc(-n2c(=O)cc(C(F)(F)F)n(C)c2=O)c(F)cc1Cl)C(=O)OC1C(=O)OCC1(C)C (stereo not drawn) [I.1-142]
100%: Abutilon theophrasti (Efficacy in %) (Abutilon theophrasti [1]; application rate 20 g/ha) | Amaranthus retroflexus (Efficacy in %) (Amaranthus retroflexus [3]; application rate 20 g/ha) | Echinochloa crus-galli (Efficacy in %) (Echinochloa crus-galli [5]; application rate 20 g/ha) | Matricaria inodora (Efficacy in %) (Matricaria inodora [7]; application rate 20 g/ha) | Pharbitis purpurea (Efficacy in %) (Pharbitis purpurea [8]; application rate 20 g/ha) | Polygonum convolvulus (Efficacy in %) (Polygonum convolvulus [9]; application rate 20 g/ha) | Setaria viridis (Efficacy in %) (Setaria viridis [10]; application rate 20 g/ha) | Stellaria media (Efficacy in %) (Stellaria media [11]; application rate 20 g/ha) | Veronica persica (Efficacy in %) (Veronica persica [12]; application rate 20 g/ha) | Viola tricolor (Efficacy in %) (Viola tricolor [13]; application rate 20 g/ha) | Abutilon theophrasti (Efficacy in %) (Abutilon theophrasti [14]; application rate 80 g/ha) | Amaranthus retroflexus (Efficacy in %) (Amaranthus retroflexus [16]; application rate 80 g/ha) | Polygonum convolvulus (Efficacy in %) (Polygonum convolvulus [20]; application rate 80 g/ha) | Setaria viridis (Efficacy in %) (Setaria viridis [21]; application rate 80 g/ha) | Stellaria media (Efficacy in %) (Stellaria media [22]; application rate 80 g/ha) | Veronica persica (Efficacy in %) (Veronica persica [23]; application rate 80 g/ha) | Viola tricolor (Efficacy in %) (Viola tricolor [24]; application rate 80 g/ha) | Matricaria inodora (Efficacy in %) (Matricaria inodora [25]; application rate 80 g/ha) | Digitaria sanguinalis (Efficacy in %) (Digitaria sanguinalis [29]; application rate 20 g/ha) | Digitaria sanguinalis (Efficacy in %) (Digitaria sanguinalis [30]; application rate 80 g/ha)
20%: Triticum aestivum (Efficacy in %) (Triticum aestivum; application rate 20 g/ha)
80%: Alopecurus myosuroides (Efficacy in %) (Alopecurus myosuroides [2]; application rate 20 g/ha)
90%: Echinochloa crus-galli (Efficacy in %) (Echinochloa crus-galli [17]; application rate 80 g/ha) | Pharbitis purpurea (Efficacy in %) (Pharbitis purpurea [19]; application rate 80 g/ha)

CC(Sc1cc(-n2c(=O)cc(C(F)(F)F)n(C)c2=O)c(F)cc1Cl)C(=O)OC1CNC(=O)C1 (stereo not drawn) [I.1-254]
10%: Triticum aestivum (Efficacy in %) (Triticum aestivum; application rate 20 g/ha)
100%: Abutilon theophrasti (Efficacy in %) (Abutilon theophrasti [1]; application rate 80 g/ha) | Amaranthus retroflexus (Efficacy in %) (Amaranthus retroflexus [3]; application rate 80 g/ha) | Echinochloa crus-galli (Efficacy in %) (Echinochloa crus-galli [5]; application rate 80 g/ha) | Matricaria inodora (Efficacy in %) (Matricaria inodora [7]; application rate 80 g/ha) | Pharbitis purpurea (Efficacy in %) (Pharbitis purpurea [8]; application rate 80 g/ha) | Polygonum convolvulus (Efficacy in %) (Polygonum convolvulus [9]; application rate 80 g/ha) | Setaria viridis (Efficacy in %) (Setaria viridis [10]; application rate 80 g/ha) | Viola tricolor (Efficacy in %) (Viola tricolor [13]; application rate 80 g/ha) | Abutilon theophrasti (Efficacy in %) (Abutilon theophrasti [14]; application rate 320 g/ha) | Alopecurus myosuroides (Efficacy in %) (Alopecurus myosuroides [15]; application rate 320 g/ha) | Amaranthus retroflexus (Efficacy in %) (Amaranthus retroflexus [16]; application rate 80 g/ha) | Echinochloa crus-galli (Efficacy in %) (Echinochloa crus-galli [17]; application rate 320 g/ha) | Lolium rigidum (Efficacy in %) (Lolium rigidum [28]) | Pharbitis purpurea (Efficacy in %) (Pharbitis purpurea [19]; application rate 320 g/ha) | Polygonum convolvulus (Efficacy in %) (Polygonum convolvulus [20]; application rate 320 g/ha) | Setaria viridis (Efficacy in %) (Setaria viridis [21]; application rate 320 g/ha) | Stellaria media (Efficacy in %) (Stellaria media [22]; application rate 320 g/ha) | Veronica persica (Efficacy in %) (Veronica persica [23]; application rate 320 g/ha) | Viola tricolor (Efficacy in %) (Viola tricolor [24]; application rate 320 g/ha) | Matricaria inodora (Efficacy in %) (Matricaria inodora [25]; application rate 320 g/ha)
90%: Stellaria media (Efficacy in %) (Stellaria media [11]; application rate 80 g/ha) | Veronica persica (Efficacy in %) (Veronica persica [12]; application rate 80 g/ha) | Avena fatua (Efficacy in %) (Avena fatua [32]) | Hordeum murinum (Efficacy in %) (Hordeum murinum [27])
0%: Oryza sativa (Efficacy in %) (Oryza sativa; application rate 80 g/ha) | Zea mays (Efficacy in %) (Zea mays; application rate 80 g/ha)
80%: Avena fatua (Efficacy in %) (Avena fatua [4]) | Cyperus esculentus (Efficacy in %) (Cyperus esculentus)
100% and 80%: Hordeum murinum (Efficacy in %) (Hordeum murinum [31])
20%: Glycine max (Efficacy in %) (Glycine max)
